Results published in patent publication US10597388B2, “Pyridazinone herbicides” (FMC CORPORATION, priority 2014, dated 2020).

Legend:
Assay in all cases: Test E greenhouse herbicide test, pre- and postemergence
Format in all cases: in vivo
[1] = tested on: velvetleaf (Abutilon theophrasti); conditions: Preemergence
How it was run: (§1)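 For each species, sown seed in silt loam and young plants (2 to 18 cm) in a peat/vermiculite medium were each treated with compound dissolved in surfactant-containing, non-phytotoxic solvent. After 14 to 21 d under greenhouse conditions, effects were visually rated, 100 meaning complete control.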

[2] = tested on: horseweed (Conyza canadensis); conditions: Postemergence
How it was run: as §1

[3] = tested on: nutsedge, yellow (yellow nutsedge, Cyperus esculentus); conditions: Preemergence
How it was run: as §1

[4] = tested on: johnsongrass (Sorghum halepense); conditions: Preemergence
How it was run: as §1

[5] = tested on: ragweed (common ragweed, Ambrosia elatior)
How it was run: as §1

[6] = tested on: corn (Zea mays)
How it was run: as §1

[7] = tested on: panicum, fall (fall panicum, Panicum dichotomiflorum)
How it was run: as §1

[8] = tested on: barnyardgrass (Echinochloa crus-galli)
How it was run: as §1

[9] = tested on: soybean (Glycine max)
How it was run: as §1

[10] = tested on: dayflower (Virginia (VA) dayflower, Commelina virginica)
How it was run: as §1

[11] = tested on: foxtail, giant (giant foxtail, Setaria faberii); conditions: Preemergence
How it was run: as §1

[12] = tested on: lambsquarters (Chenopodium album); conditions: Preemergence
How it was run: as §1

[13] = tested on: pigweed, palmer (palmer pigweed, Amaranthus palmeri)
How it was run: as §1

[14] = tested on: foxtail, green (green foxtail, Setaria viridis); conditions: Preemergence
How it was run: as §1

[15] = tested on: beggarticks (hairy beggarticks, Bidens pilosa)
How it was run: as §1

[16] = tested on: sandbur (southem sandbur, Cenchrus echinatus)
How it was run: as §1

[17] = 62 g ai/ha, scale 0 to 100 (0 no effect, 100 complete control)
[18] = 125 g ai/ha, scale 0 to 100 (0 no effect, 100 complete control)
[19] = 31 g ai/ha, scale 0 to 100, 0 no effect, 100 complete control
[20] = 250 g ai/ha, visual, scale 0 no effect to 100 complete control
[21] = 250 g ai/ha, scale 0 to 100 (0 no effect, 100 complete control)
[22] = 31 g ai/ha, visual, scale 0 no effect to 100 complete control
[23] = 125 g ai/ha, visual, scale 0 no effect to 100 complete control
[24] = 62 g ai/ha, Postemergence, scale 0 to 100 (0 no effect, 100 complete control)
[25] = 62 g ai/ha, Preemergence, scale 0 to 100 (0 no effect, 100 complete control)
[26] = 125 g ai/ha, Postemergence, scale 0 to 100 (0 no effect, 100 complete control)
[27] = 125 g ai/ha, Preemergence, scale 0 to 100 (0 no effect, 100 complete control)
[28] = 250 g ai/ha, Postemergence, scale 0 to 100 (0 no effect, 100 complete control)
[29] = Postemergence, 31 g ai/ha, visual, scale 0 no effect to 100 complete control
[30] = Preemergence, 31 g ai/ha, scale 0 to 100, 0 no effect, 100 complete control
[31] = Preemergence, 250 g ai/ha, visual, scale 0 no effect to 100 complete control
[32] = Preemergence, 125 g ai/ha, visual, scale 0 no effect to 100 complete control

Cc1cc2ccccc2c(-c2c(O)c(C)nn(C)c2=O)c1C [Compound 34]
20: Plant response rating, Velvetleaf [1, 19]
15: Plant response rating, Soybean [9, 27]
10: Plant response rating, Lambsquarters [12, 19]
60: Plant response rating, Panicum, Fall [7, 28] | Plant response rating, Soybean [9, 28] | Plant response rating, Dayflower, VA [10, 29]
5: Plant response rating, Corn [6, 28] | Plant response rating, Foxtail, Giant [11, 19]
100: Plant response rating, Velvetleaf [1, 18] | Plant response rating, Velvetleaf [1, 20] | Plant response rating, Ragweed [5, 27] | Plant response rating, Ragweed [5, 28] | Plant response rating, Ragweed [5, 31] | Plant response rating, Lambsquarters [12, 17] | Plant response rating, Lambsquarters [12, 23] | Plant response rating, Beggarticks [15, 24] | Plant response rating, Beggarticks [15, 25] | Plant response rating, Beggarticks [15, 28] | Plant response rating, Beggarticks [15, 32] | Plant response rating, Beggarticks [15, 31]
65: Plant response rating, Panicum, Fall [7, 24] | Plant response rating, Barnyardgrass [8, 31] | Plant response rating, Foxtail, Giant [11, 20] | Plant response rating, Pigweed, Palmer [13, 26] | Plant response rating, Foxtail, Green [14, 20] | Plant response rating, Sandbur [16, 27]
98: Plant response rating, Lambsquarters [12, 20] | Plant response rating, Beggarticks [15, 26]
50: Plant response rating, Panicum, Fall [7, 29] | Plant response rating, Pigweed, Palmer [13, 29]
25: Plant response rating, Foxtail, Green [14, 23]
85: Plant response rating, Horseweed [2, 22] | Plant response rating, Ragweed [5, 24] | Plant response rating, Sandbur [16, 26]
40: Plant response rating, Nutsedge, Yellow [3, 18] | Plant response rating, Barnyardgrass [8, 24] | Plant response rating, Barnyardgrass [8, 26] | Plant response rating, Barnyardgrass [8, 28] | Plant response rating, Soybean [9, 24] | Plant response rating, Foxtail, Giant [11, 17] | Plant response rating, Foxtail, Giant [11, 23] | Plant response rating, Sandbur [16, 25]
80: Plant response rating, Horseweed [2, 18] | Plant response rating, Nutsedge, Yellow [3, 17] | Plant response rating, Nutsedge, Yellow [3, 20] | Plant response rating, Panicum, Fall [7, 25] | Plant response rating, Dayflower, VA [10, 24] | Plant response rating, Pigweed, Palmer [13, 24] | Plant response rating, Sandbur [16, 24]
0: Plant response rating, Nutsedge, Yellow [3, 19] | Plant response rating, Johnsongrass [4, 17] | Plant response rating, Johnsongrass [4, 19] | Plant response rating, Johnsongrass [4, 23] | Plant response rating, Johnsongrass [4, 20] | Plant response rating, Corn [6, 24] | Plant response rating, Corn [6, 25] | Plant response rating, Corn [6, 26] | Plant response rating, Corn [6, 29] | Plant response rating, Corn [6, 30] | Plant response rating, Corn [6, 32] | Plant response rating, Corn [6, 31] | Plant response rating, Barnyardgrass [8, 25] | Plant response rating, Barnyardgrass [8, 30] | Plant response rating, Soybean [9, 30] | Plant response rating, Soybean [9, 31] | Plant response rating, Pigweed, Palmer [13, 25] | Plant response rating, Pigweed, Palmer [13, 30] | Plant response rating, Foxtail, Green [14, 17] | Plant response rating, Foxtail, Green [14, 19] | Plant response rating, Sandbur [16, 30]
70: Plant response rating, Ragweed [5, 30] | Plant response rating, Panicum, Fall [7, 26] | Plant response rating, Panicum, Fall [7, 30] | Plant response rating, Soybean [9, 26] | Plant response rating, Dayflower, VA [10, 32] | Plant response rating, Sandbur [16, 29] | Plant response rating, Sandbur [16, 31]
30: Plant response rating, Barnyardgrass [8, 29]
95: Plant response rating, Panicum, Fall [7, 31]
90: Plant response rating, Velvetleaf [1, 17] | Plant response rating, Horseweed [2, 21] | Plant response rating, Ragweed [5, 26] | Plant response rating, Ragweed [5, 29] | Plant response rating, Panicum, Fall [7, 27] | Plant response rating, Dayflower, VA [10, 26] | Plant response rating, Dayflower, VA [10, 28] | Plant response rating, Dayflower, VA [10, 31] | Plant response rating, Pigweed, Palmer [13, 27] | Plant response rating, Pigweed, Palmer [13, 31] | Plant response rating, Beggarticks [15, 29] | Plant response rating, Beggarticks [15, 30] | Plant response rating, Sandbur [16, 28]
75: Plant response rating, Horseweed [2, 17] | Plant response rating, Ragweed [5, 25] | Plant response rating, Pigweed, Palmer [13, 28]
35: Plant response rating, Barnyardgrass [8, 32] | Plant response rating, Soybean [9, 25] | Plant response rating, Soybean [9, 29] | Plant response rating, Dayflower, VA [10, 25] | Plant response rating, Dayflower, VA [10, 30]

CCc1sc2ccc(C)cc2c1-c1c(O)c(C)nn(C)c1=O [Compound 47]
75: Plant response rating, Velvetleaf [1, 18] | Plant response rating, Horseweed [2, 21]
20: Plant response rating, Johnsongrass [4, 20] | Plant response rating, Corn [6, 28] | Plant response rating, Soybean [9, 26] | Plant response rating, Soybean [9, 29] | Plant response rating, Foxtail, Green [14, 17] | Plant response rating, Sandbur [16, 24] | Plant response rating, Sandbur [16, 29]
60: Plant response rating, Horseweed [2, 18] | Plant response rating, Barnyardgrass [8, 28]
70: Plant response rating, Panicum, Fall [7, 28] | Plant response rating, Pigweed, Palmer [13, 28] | Plant response rating, Foxtail, Green [14, 20] | Plant response rating, Sandbur [16, 31]
55: Plant response rating, Panicum, Fall [7, 24] | Plant response rating, Panicum, Fall [7, 26]
25: Plant response rating, Soybean [9, 24] | Plant response rating, Pigweed, Palmer [13, 27] | Plant response rating, Sandbur [16, 26]
98: Plant response rating, Ragweed [5, 27] | Plant response rating, Beggarticks [15, 26] | Plant response rating, Beggarticks [15, 28]
5: Plant response rating, Corn [6, 24] | Plant response rating, Corn [6, 26] | Plant response rating, Dayflower, VA [10, 24]
90: Plant response rating, Ragweed [5, 24]
50: Plant response rating, Panicum, Fall [7, 25] | Plant response rating, Panicum, Fall [7, 30] | Plant response rating, Barnyardgrass [8, 32]
0: Plant response rating, Velvetleaf [1, 19] | Plant response rating, Nutsedge, Yellow [3, 19] | Plant response rating, Johnsongrass [4, 17] | Plant response rating, Johnsongrass [4, 19] | Plant response rating, Johnsongrass [4, 23] | Plant response rating, Corn [6, 25] | Plant response rating, Corn [6, 29] | Plant response rating, Corn [6, 30] | Plant response rating, Corn [6, 32] | Plant response rating, Corn [6, 31] | Plant response rating, Barnyardgrass [8, 25] | Plant response rating, Barnyardgrass [8, 30] | Plant response rating, Soybean [9, 25] | Plant response rating, Soybean [9, 27] | Plant response rating, Soybean [9, 30] | Plant response rating, Dayflower, VA [10, 25] | Plant response rating, Dayflower, VA [10, 26] | Plant response rating, Dayflower, VA [10, 29] | Plant response rating, Dayflower, VA [10, 30] | Plant response rating, Dayflower, VA [10, 32] | Plant response rating, Foxtail, Giant [11, 17] | Plant response rating, Foxtail, Giant [11, 19] | Plant response rating, Pigweed, Palmer [13, 25] | Plant response rating, Pigweed, Palmer [13, 30] | Plant response rating, Foxtail, Green [14, 19] | Plant response rating, Sandbur [16, 25] | Plant response rating, Sandbur [16, 30]
40: Plant response rating, Horseweed [2, 17] | Plant response rating, Horseweed [2, 22] | Plant response rating, Panicum, Fall [7, 29] | Plant response rating, Barnyardgrass [8, 26] | Plant response rating, Soybean [9, 31] | Plant response rating, Foxtail, Giant [11, 23]
80: Plant response rating, Ragweed [5, 29] | Plant response rating, Ragweed [5, 30] | Plant response rating, Panicum, Fall [7, 27] | Plant response rating, Dayflower, VA [10, 31] | Plant response rating, Foxtail, Giant [11, 20]
65: Plant response rating, Pigweed, Palmer [13, 31]
10: Plant response rating, Barnyardgrass [8, 29] | Plant response rating, Dayflower, VA [10, 28] | Plant response rating, Sandbur [16, 27]
95: Plant response rating, Ragweed [5, 25] | Plant response rating, Ragweed [5, 26] | Plant response rating, Ragweed [5, 28] | Plant response rating, Panicum, Fall [7, 31] | Plant response rating, Barnyardgrass [8, 31]
100: Plant response rating, Velvetleaf [1, 20] | Plant response rating, Ragweed [5, 31] | Plant response rating, Lambsquarters [12, 17] | Plant response rating, Lambsquarters [12, 19] | Plant response rating, Lambsquarters [12, 23] | Plant response rating, Lambsquarters [12, 20] | Plant response rating, Beggarticks [15, 24] | Plant response rating, Beggarticks [15, 25] | Plant response rating, Beggarticks [15, 30] | Plant response rating, Beggarticks [15, 32] | Plant response rating, Beggarticks [15, 31]
85: Plant response rating, Beggarticks [15, 29]
35: Plant response rating, Nutsedge, Yellow [3, 20] | Plant response rating, Pigweed, Palmer [13, 24] | Plant response rating, Pigweed, Palmer [13, 29] | Plant response rating, Sandbur [16, 28]
30: Plant response rating, Nutsedge, Yellow [3, 18] | Plant response rating, Barnyardgrass [8, 24] | Plant response rating, Soybean [9, 28] | Plant response rating, Pigweed, Palmer [13, 26] | Plant response rating, Foxtail, Green [14, 23]
